Data on three molecules can be found in patent US12060409B2, “Short cyclic peptides for the treatment of Graves' disease” (priority 2018, dated 2024).

Peptide text beside a SMILES is read from it.

Data set [1] deals with immunologically naïve mice. Nature of the data set: Studies in immunologically naive mice: 6 monthly IV administrations. It counts as in vivo, BALB/c mice. To be noted: 1 mg/kg bw IV, 6 monthly administrations. How it is done:
BALB/c mice were adapted for at least one week to start experiments at the age of 12 weeks. Animals were kept as described before. This study was approved by the local animal welfare authority and Ethics committee at the Regierung von Oberbayern (Government of Upper Bavaria) in Munich, Germany (no. 55.2-1-54-2532.0-32-15), and carried out in accordance to the European Commission guidelines.
Peptides (1 mg/kg body weight) or NaCl vehicle control were given by IV injection into a tail vein of these naïve mice (n=6 per group), and then continued at 4-weekly intervals for 6 months, as described before for the therapeutic study in immunized mice. Serum samples were taken at identical intervals.

In data set [2] the test system is TSHR-immunized diseased mice. To be noted: previous study (8); cited from earlier work.

For the molecule `CC(C)[C@@H]1NC(=O)[C@H](CCCNC(=N)N)NC(=O)[C@H](Cc2ccccc2)NC(=O)[C@H](CC(=O)O)NC(=O)[C@H](CCC(=O)O)NC(=O)[C@H](CCC(=O)O)NC(=O)[C@H](CCC(N)=O)NC(=O)[C@H](Cc2c[nH]cn2)NC(=O)[C@@H](N)CSSC[C@@H](C(=O)O)NC(=O)[C@H]([C@@H](C)O)NC1=O` [peptide 19, CHQEEDFRVTC] (HELM PEPTIDE1{C.H.Q.E.E.D.F.R.V.T.C}$PEPTIDE1,PEPTIDE1,1:R3-11:R3$$$V2.0), the “Tolerability / clinical findings” value in data set [1] was “no pathological clinical findings were observed”. The same measure, in the same setting: as for `CC(C)C[C@@H]1NC(=O)[C@H](Cc2ccc(O)cc2)NC(=O)[C@H](C(C)C)NC(=O)[C@H](C)NC(=O)[C@H](CC(=O)O)NC(=O)[C@H](CC(C)C)NC(=O)[C@H](CCCCN)NC(=O)[C@H]([C@@H](C)O)NC(=O)CNC(=O)[C@H](CCCCN)NC(=O)[C@H](CC(N)=O)NC(=O)[C@H](CCCCN)NC(=O)[C@H](CC(N)=O)NC1=O` [peptide 836 13mer, TKLDAVYLNKNKG] (HELM PEPTIDE1{A.V.Y.L.N.K.N.K.G.T.K.L.D}$PEPTIDE1,PEPTIDE1,1:R1-13:R2$$$V2.0), the entry is “no pathological clinical findings were observed”.

“SPPCECHQEEDFRVTCKDIQRIPS (cyclic; Amino acid sequence derived from human thyrotropin-TSH receptor (TSHR)) [peptide 829]”: in data set [2], the “Improvement of disease parameters” value is reported as “small, non-significant trends to improve disease parameters”.
